# Measurements published in US20210255193A1, “LYSINE REACTIVE PROBES AND USES THEREOF” (The Scripps Research Institute, priority 2017, published 2021).
# Legend:
# [1] = target: T1, GSTT2B Glutathione S-transferase theta-2B (Homo sapiens, UniProt P0CG30); assay: competitive isoTOP-ABPP; format: binding; conditions: for isoTOP-ABPP ratio (R) at liganded lysine P0CG30_K53 / isoTOP-ABPP reactivity ratio at lysine P0CG30_K53: 50 uM, in vitro; for isoTOP-ABPP ratio (R) at liganded lysine P0CG30_K53: sol, 231; for isoTOP-ABPP reactivity ratio at lysine P0CG30_K53: 231 sol
# T1 construct: isoTOP-ABPP experiments performed in cell lysates (in vitro); endogenous in cells; host or cells: MDA-MB-231 soluble lysate
# T1 sequence (P0CG30 1-244): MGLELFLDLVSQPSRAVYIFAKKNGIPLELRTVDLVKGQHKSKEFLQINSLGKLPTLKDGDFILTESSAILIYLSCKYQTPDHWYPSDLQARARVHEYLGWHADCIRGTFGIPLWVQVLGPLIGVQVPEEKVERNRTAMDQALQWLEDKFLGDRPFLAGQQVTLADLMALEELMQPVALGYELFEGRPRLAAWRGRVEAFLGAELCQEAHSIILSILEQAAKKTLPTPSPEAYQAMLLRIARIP
# Outline: (§1)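 Readout: isotopic light/heavy MS1 peak-area ratio (R, DMSO heavy over compound light), median across peptides sharing a modified lysine. Lysate received fragment (activated esters 50 μM, guanidinylating agents 100 μM final) or DMSO, then 0.1 mM STP-alkyne probe for 1 h at ambient temperature.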
# [2] = target: T2, AP1G1 AP-1 complex subunit gamma-1 (Homo sapiens, UniProt O43747); assay: competitive isoTOP-ABPP; format: binding; conditions: for isoTOP-ABPP ratio (R) at liganded lysine O43747_K214 / isoTOP-ABPP reactivity ratio at lysine O43747_K214: 50 uM, in vitro; for isoTOP-ABPP ratio (R) at liganded lysine O43747_K214: sol, 231; for isoTOP-ABPP reactivity ratio at lysine O43747_K214: 231 sol
# T2 construct: isoTOP-ABPP experiments performed in cell lysates (in vitro); endogenous in cells; host or cells: MDA-MB-231 soluble lysate
# T2 sequence (O43747 1-822): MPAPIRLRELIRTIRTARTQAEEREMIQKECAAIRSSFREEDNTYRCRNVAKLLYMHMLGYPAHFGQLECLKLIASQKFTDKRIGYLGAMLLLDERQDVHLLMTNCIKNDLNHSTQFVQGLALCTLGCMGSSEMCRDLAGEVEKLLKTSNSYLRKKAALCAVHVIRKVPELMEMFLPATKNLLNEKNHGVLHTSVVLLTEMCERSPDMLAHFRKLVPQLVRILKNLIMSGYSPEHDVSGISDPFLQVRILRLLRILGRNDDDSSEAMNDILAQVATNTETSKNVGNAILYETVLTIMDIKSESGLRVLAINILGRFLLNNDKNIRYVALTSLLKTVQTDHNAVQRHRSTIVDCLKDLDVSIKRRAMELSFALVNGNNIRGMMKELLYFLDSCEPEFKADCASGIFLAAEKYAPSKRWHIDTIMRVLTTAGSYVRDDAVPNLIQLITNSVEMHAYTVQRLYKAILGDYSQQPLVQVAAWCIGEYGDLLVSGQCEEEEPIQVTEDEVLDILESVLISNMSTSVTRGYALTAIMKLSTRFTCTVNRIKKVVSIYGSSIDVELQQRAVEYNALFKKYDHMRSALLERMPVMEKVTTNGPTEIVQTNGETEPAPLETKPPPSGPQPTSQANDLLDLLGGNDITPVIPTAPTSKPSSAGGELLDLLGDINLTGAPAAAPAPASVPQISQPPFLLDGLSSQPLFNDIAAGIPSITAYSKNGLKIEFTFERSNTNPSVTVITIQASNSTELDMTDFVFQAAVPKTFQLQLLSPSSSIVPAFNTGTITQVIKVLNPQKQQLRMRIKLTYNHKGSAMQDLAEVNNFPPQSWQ
# Outline: as §1
Compound,isoTOP-ABPP ratio (R) at liganded lysine P0CG30_K53 [1],isoTOP-ABPP ratio (R) at liganded lysine O43747_K214 [2],isoTOP-ABPP reactivity ratio at lysine P0CG30_K53 [1],isoTOP-ABPP reactivity ratio at lysine O43747_K214 [2],other results
"O=C(ON1C(=O)CCC1=O)c1cc(C(F)(F)F)cc(C(F)(F)F)c1 [fragment 46, 3,5-Bis(trifluoromethyl)benzoic acid NHS ester]",–,–,–,–,"isoTOP-ABPP ratio, lysine P0CG30_K53 ([1]; 50 uM_231_sol_in vitro): 1.8; isoTOP-ABPP ratio, lysine O43747_K214 ([2]; 50 uM_231_sol_in vitro): 1.0"
"O=C(Oc1ccc([N+](=O)[O-])cc1[N+](=O)[O-])c1ccc(Oc2ccccc2)cc1 [fragment 39, 2,4-Dinitrophenyl 4-phenoxybenzoate]",0.7,0.8,–,–,–
"O=C(Oc1ccc([N+](=O)[O-])cc1[N+](=O)[O-])c1ccc(-c2ccccc2)cc1 [fragment 37, 2,4-Dinitrophenyl [1,1′-biphenyl]-4-carboxylate]",0.7,0.9,–,–,–
"COc1cc(CCC(=O)Oc2ccc([N+](=O)[O-])cc2[N+](=O)[O-])cc(OC)c1OC [fragment 33, 2,4-Dinitrophenyl 3-(3,4,5-trimethoxyphenyl)propanoate]",–,–,0.5,1.7,–
"CC(=O)Oc1ccc([N+](=O)[O-])cc1[N+](=O)[O-] [fragment 43, 2,4-Dinitrophenyl acetate]",0.6,1.1,–,–,–
"CCn1cc(C(=O)Oc2c(F)c(F)c(F)c(F)c2F)c(=O)c2ccc(C)nc21 [fragment 28, Pentafluorophenyl 1-ethyl-7-methyl-4-oxo-1,4-dihydro-1,8-naphthyridine-3-carboxylate]",–,–,1.0,1.0,–
